According to patent publication US20260001892A1, “COMPOUND FOR REGULATING AND CONTROLLING ACTIVITY OF 15-PGDH AND PREPARATION METHOD THEREFOR” (SCINNOHUB PHARMACEUTICAL CO., LTD., priority 2022, published 2026):

molecular target: 15-PGDH (Homo sapiens (Human), UniProt P15428); assay: Detection of activity of 15-PGDH enzyme; type: biochemical; conditions: inhibitory activity against 15-PGDH enzyme; substrates β-NAD and PGF2α; fluorescence Ex/Em=340/450
Description: • a. A solution of pH 7.5 containing 50 mM Tris-HCl, 0.01% Tween 20 was prepared with ultrapure water as a reaction buffer; • b. A 10 mM mother liquor of the compound to be tested was prepared with DMSO, and then the reaction buffer was used to dilute the mother liquor of the compound to be tested to obtain solution 1 of the compound to be tested at a concentration of 40,000 nM, and then the solution 1 of the compound to be tested was serially diluted into solutions 2-9 (or 2-12) of the compound to be tested at 9 (or 11) concentrations with a gradient difference of three-fold. 5 μL of each concentration of solutions of the compound to be tested was respectively taken and added into a 384-well plate as test wells; • c. 5 μL of the reaction buffer was then added to the blank wells of the 384-well plate as positive control and blank control wells, respectively; • d. The reaction buffer was used to prepare a 15-PGDH protein solution at a concentration of 5 ng/μL, 5 μL of the 15-PGDH protein solution was taken and added to the test wells and positive control wells, and meanwhile 5 μL of the reaction buffer was added to the blank control wells, then the plate was centrifuged at 2000 rpm for 30 seconds; • e. The reaction buffer was used to prepare 5 mM $3-NAD and 2 mM PGF2α, respectively, which were mixed at 1:1 by volume to obtain a substrate mixture, 10 μL of the substrate mixture was taken and added to the test wells, positive control wells and blank control wells to start the reaction; • f. The fluorescence signal value (Ex/Em=340/450) of each well was detected continuously by using a multifunctional microplate reader.
• a) Continuous fluorescence signal values were analyzed by using the “kinetic calculations-slope calculation method” in the PHERAstar Data analysis software to obtain the slope of each test well; • b) The inhibition rate % was calculated by using the following formula: inhibition rate %=[1−(slope of test well-signal value of positive control well)/(signal value of blank control well-average signal value of positive control well)]×100%. • c) Calculation of IC50 and plotting of inhibition rate-dose curves: IC50 values were calculated by fitting compound concentrations and corresponding inhibition rates with a nonlinear regression (dose response-variable slope) via using GraphPad Prism 6.0. The formula was shown below:
Y=Bottom+(Top−Bottom)/(1+10^((Log IC50−X)*HillSlope)), wherein X is a log value of a concentration of the compound, and Y is inhibition rate %.

Chain of 15-PGDH (P15428 whole entry): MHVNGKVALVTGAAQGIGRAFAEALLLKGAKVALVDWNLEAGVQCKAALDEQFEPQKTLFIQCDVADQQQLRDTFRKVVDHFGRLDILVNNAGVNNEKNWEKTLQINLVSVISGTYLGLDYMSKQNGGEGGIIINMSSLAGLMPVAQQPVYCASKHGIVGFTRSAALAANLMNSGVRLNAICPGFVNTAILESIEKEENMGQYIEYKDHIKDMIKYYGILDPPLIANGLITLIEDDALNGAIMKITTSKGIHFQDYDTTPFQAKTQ

Structure (SMILES)	IC50
O=C(c1sc2nc(-c3ccc4nccn4c3)cnc2c1C(F)(F)F)N1CCCCC1 [Example 77]	3 to 10 nM
O=C(c1sc2nc(-c3ccc4ncsc4c3)cnc2c1C(F)(F)F)N1CCCCC1 [Example 78]	10 to 20 nM
Nc1cc(-c2cnc3c(C(F)(F)F)c(C(=O)N4CCCCC4)sc3n2)ccn1 [Example 83]	3 to 10 nM
COc1c(C(=O)N2CCCCC2)sc2nc(-c3ccccc3)cnc12 [Example 95]	3 to 10 nM
Cc1c(C(=O)N2CCCCC2)sc2nc(-c3ccccc3)cnc12 [Example 96]	10 to 20 nM
CCc1c(C(=O)N2CCCCC2)sc2nc(-c3ccccc3)cnc12 [Example 97]	3 to 10 nM
O=C(c1sc2nc(-c3ccccc3)cnc2c1Br)N1CCCCC1 [Example 98]	< 3 nM
O=C(c1sc2nc(-c3ccccc3)cnc2c1O)N1CCCCC1 [Example 101]	50 to 100 nM

Second part, the compound after the results:

IC50	Structure (SMILES)
3 to 10 nM	O=C(c1sc2nc(-c3ccc(F)nc3)cnc2c1C(F)(F)F)N1CCCCC1 [Example 79]
3 to 10 nM	COc1ccc(-c2cnc3c(C(F)(F)F)c(C(=O)N4CCCCC4)sc3n2)cn1 [Example 80]
3 to 10 nM	COc1cc(-c2cnc3c(C(F)(F)F)c(C(=O)N4CCCCC4)sc3n2)ccn1 [Example 85]
3 to 10 nM	O=C(c1sc2nc(-c3cncs3)cnc2c1C(F)(F)F)N1CCCCC1 [Example 86]
< 3 nM	Cc1cc(-c2cnc3c(C(F)(F)F)c(C(=O)N4CCCCC4)sc3n2)ccn1 [Example 87]
10 to 20 nM	CN(C)c1ncc(-c2cnc3c(C(F)(F)F)c(C(=O)N4CCCCC4)sc3n2)cn1 [Example 88]
10 to 20 nM	O=C(c1sc2nc(-c3cnc(N4CCOCC4)nc3)cnc2c1C(F)(F)F)N1CCCCC1 [Example 89]
3 to 10 nM	O=C(c1sc2nc(-c3cncnc3)cnc2c1C(F)(F)F)N1CCCCC1 [Example 91]
3 to 10 nM	CN1Cc2cc(-c3cnc4c(C(F)(F)F)c(C(=O)N5CCCCC5)sc4n3)ccc2C1=O [Example 94]
10 to 20 nM	CC(C)c1c(C(=O)N2CCCCC2)sc2nc(-c3ccccc3)cnc12 [Example 99]
10 to 20 nM	O=C(c1cc2ncc(-c3ccccc3)nc2s1)N1CCCCC1 [Example 100]
